According to patent US20120196927A1, “PROPHYLACTIC AND/OR THERAPEUTIC AGENT FOR METABOLIC SYNDROME” (priority 2009, published 2012):

Assays:
C57BL/6J-ob/ob mice [1] = type: in vivo, mouse; conditions: p.o. daily 5 weeks, nobiletin 200 mg/kg/day (No200), Pioglitazone 30 mg/kg/day (P30)
Excerpt: (§6) Diabetes model mice and the experimental system were as follows. As the diabetes model mice, 7 week age of male C57BL/6J-ob/ob (hereinafter, it was referred to as “ob/ob”) were purchased from Charles River Laboratories Japan Inc., and used as 10 mice/group.
For the negative control group (from FIGS. 5 to 10, it was shown as Vehicle; hereinafter, it is referred to as “solvent administration group”), 0.3% of CMC aqueous solution was administrated orally for 5 weeks in everyday at the dosage of 0.01 mL/g body weight. For the positive control group (in FIGS. 5 to 10 and hereinafter, it was referred to as “P30 administrated group”), 3 mg of Pioglitazone was suspended in 0.3% CMC aqueous solution so as to be orally administrated at the dosage of 0.01 mL/g body weight for 5 weeks in everyday (dosage: 30 mg/kg body weight/day).
For the sample ingestion group (in FIGS. 5 to 10 and hereinafter, it is referred to as “No200 ingestion group”), 20 mg of nobiletin purified as mentioned above (1) was suspended in 0.3% of carboxymethylcellulose (CMC) aqueous solution so as to be orally administrated at the dose of 0.01 mL/g body weight for 5 weeks in everyday (the dose: 200 mg/kg/day).
The body weight of mice, ingestion amount, weight of the white adipose tissue and liver weight of each mice were measured as the same as described in the example 3.

C57BL/6J-ob/ob mice [2] = assay: Diabetes model mice: fasting blood glucose level; type: in vivo, mouse; conditions: nobiletin 200 mg/kg/day, Pioglitazone 30 mg/kg/day p.o.
Procedure: Two weeks or 5 weeks from the beginning of the administration, the fasting blood glucose was measured (n=10). The measurement of the blood glucose level was carried out as the same as that of the example 1.

C57BL/6J-ob/ob mice [3] = assay: Diabetes model mice: oral glucose tolerance test (OGTT); type: in vivo, mouse; conditions: nobiletin 200 mg/kg/day, Pioglitazone 30 mg/kg/day
Procedure: The oral glucose tolerance test (OGTT) for the diabetes model mice (ob/ob) to which the nobiletin and others were administrated was subjected to the glucose tolerance test for studying the effects.
From 4 weeks after the start of the administration, the mice in each group were fasted for 16 hours, and then they were administrated 2 g/kg body weight of glucose per os. After the administration of glucose, […] of blood was collected from the tail vein at the time point of 0, 30, 60 and 120 minutes. Collected blood was centrifuged at 4° C., 3,000×g, for 15 minute to obtain plasma (n=10). The blood glucose level was measured as the same as that described in the example 1.

[4] = test system: GLUT4, Adiponectin, TNF-α, MCP-1, IL-6, PPARγ, aP2, LPL, Perilipin genes; assay: Diabetes model mice: mRNA expression in the white adipose tissue (real time RT-PCR); type: in vivo, mouse; conditions: ob/ob mice, Vehicle = 1.00, nobiletin 200 mg/kg/day, Pioglitazone 30 mg/kg/day, 5 weeks
Procedure: (§1) The effects by nobiletin ingestion to the mRNA expression in the white adipose tissue and the liver were measured (n=10).
(§2) After the termination of the administration period for 5 weeks, mRNA expression levels of respective genes shown in the table 10 were determined by using real time RT-PCR method. The real time RT-PCR was carried out according to an operation manual provided by ISOGEN (NIPPON GENE CO., LTD); RNA was extracted from the white adipose tissue and the liver. Next, cDNA was prepared from using 1 μg of RNA by using Reverse Transcription System kit (Promega Corp., USA). Next, suitable primers for the above-mentioned genes were prepared according to the operation manual provided by FastStart universal SYBR (a registered trademark) Greenmaster PCR KIT agent (Roche Diagnostics K. K., Germany).
(§3) Real time PCR system 7700HT (Applied Biosytems, USA) was used for the determination to carry out the real time PCR by using the cDNAs as templates. Each reaction conditions were set according to the manual of the PCR KIT. Quantitative analysis of the RNA amount was carried out based on comparative Ct method by using glyceraldehyde 3-phosphate dehydrogenase (GAPDH) as the standard reference.

[5] = test system: gluconeogenesis-related genes PEPCK, G6Pase; assay: Diabetes model mice: mRNA expression in the liver (real time RT-PCR); type: in vivo, mouse; conditions: ob/ob mice, Vehicle = 1.00, nobiletin 200 mg/kg/day, Pioglitazone 30 mg/kg/day, 5 weeks
Procedure: as §1, §2, §3

GLUT4 protein = assay: Diabetes model mice: GLUT4 protein expression level (Western blotting); type: in vivo, mouse; conditions: ob/ob mice, nobiletin 200 mg/kg/day, Pioglitazone 30 mg/kg/day
Procedure: After finishing the experiment, the white adipose tissue and skeletal muscle were excised according to that described in the example 1, protein expression level of GLUT 4 were detected by using Western blotting method. The expression levels of GLUT4 protein were determined by using Na^+/K^+ ATPase α-1 protein as an internal reference.

C57BL/6J-ob/ob mice [6] = conditions: nobiletin 200 mg/kg/day, Pioglitazone 30 mg/kg/day, 5 weeks
Excerpt: as §6
For the negative control group (from FIGS. 5 to 10, it was shown as Vehicle; hereinafter, it is referred to as “solvent administration group”), 0.3% of CMC aqueous solution was administrated orally for 5 weeks in everyday at the dosage of 0.01 mL/g body weight. For the positive control group (in FIGS. 5 to 10 and hereinafter, it was referred to as “P30 administrated group”), 3 mg of Pioglitazone was suspended in 0.3% CMC aqueous solution so as to be orally administrated at the dosage of 0.01 mL/g body weight for 5 weeks in everyday (dosage: 30 mg/kg body weight/day). […]
The blood insulin level was measured as described in below. […] As lipids in plasma, concentrations of neutral fat (TG) and total cholesterol (T-CHO) were measured. Plasma insulin level was measured by using rebis insulin mouse (type U) (Shibayagi Co. Ltd.) based on the enzyme-immunoassay.

C57BL/6 male mice [7] = assay: Tangeretin, obesity-induced mice: body weight gain and ingestion amount; type: in vivo, mouse; conditions: HFD obesity-induced C57BL/6 mice
Excerpt: (§4) Six week age of C57BL/6 male mice were preliminary kept for 1 week (−9 to −8 week), and then classified into three groups. […] was given to one group, and HFD was given to other two groups, for 8 weeks (−8 to +5 week). From 8 weeks (15 week age) to 13 weeks, the following agents were given to each group for 5 weeks per os (hereinafter, they were referred to as LFD administration group and HFD administration group in the Example 6). The compositions of the LFD or HFD were the same as those in the Example 3.
(§5) To the LFD administration group (n=8) and the HFD administration group (n=11), 0.3% CMC aqueous solution was given at the amount of 0.01 mL/g of the body weight. […] The schedule of the feed ingestion and the agent administration of the above-mentioned 3 groups were schematically shown in FIG. 12A.
The ingestion amount of the mice in each group was measured twice a week. The ingestion amounts in 24 hours/3 mice/cage were measured and obtained as mean average of each group for 5 weeks.

C57BL/6 male mice [8] = assay: Tangeretin, obesity-induced mice: tissue weight; type: in vivo, mouse; conditions: HFD obesity-induced mice, tangeretin 200 mg/kg/day p.o. 5 weeks
Excerpt: as §4, §5
After the completion of the experiment, the mice in each group were dissected to excise organs and so forth to measure their weight. The white adipose tissue was excised from retroperitoneum and periphery of epididymis.

C57BL/6 male mice [9] = assay: Tangeretin, obesity-induced mice: blood TG and T-CHO level; type: in vivo, mouse; conditions: fasting, tangeretin 200 mg/kg/day p.o., HFD
Procedure: After the completion of the experiment, blood neutral fat level in fasting state was measured at the time points of beginning of the experiment, two and five weeks after the administration.
The blood neutral fat (TG) level was measured as the same as that employed in the example 1.
The total cholesterol (T-CHO) level in blood was measured as the same as that in the Example.

C57BL/6 male mice [10] = assay: Tangeretin, obesity-induced mice: blood glucose in fasting state; type: in vivo, mouse; conditions: tangeretin 200 mg/kg/day p.o., HFD
Procedure: The blood glucose level was measured as the same as that of the example 1. […] As mentioned above, it was shown that tangeretin has the inhibition effects of the blood glucose level in the fasting state when the high fat diet was ingested.

C57BL/6 male mice [11] = assay: Tangeretin, obesity-induced mice: oral glucose tolerance test (OGTT); type: in vivo, mouse; conditions: tangeretin 200 mg/kg/day p.o., HFD
Procedure: The oral glucose tolerance test (OGTT) was carried out as the same as that in the example 1.

[12] = test system: GLUT4 gene and PPARγ gene; assay: Tangeretin, obesity-induced mice: mRNA expression of GLUT4 and PPARγ (real time RT-PCR); type: in vivo, mouse; conditions: HFD = 1, tangeretin 200 mg/kg/day p.o. 5 weeks
Procedure: mRNA expression level was determined by using real time PCR as follows. According to the direction attached with ISOGEN (Nippon Gene Co., Ltd), RNA was extracted from white adipose tissue, liver, and skeletal muscle. Next, cDNA was prepared from 1 μg of RNA by using Reverse Transcription System kit (Promega, USA). Subsequently, according to the direction attached with FastStart universal SYBR (Registered trademark) Greenmaster PCR kit reagent (Roche Diagnostics, Germany), primers suitable for each intended gene in the following experiments were synthesized. Real time PCR system 7700 HT (Applied Biosytems, USA) was used for the measurement, the cDNA was used as templates for the real time PCR. Reaction conditions were followed to those for the PCR kit reagents. Quantitative analysis of RNA level was performed by Comparison Ct method, using glyceraldehyde 3-phosphate dehydrogenase (GAPDH) as the standard.
As the same as that in the Example 1, after the completion of the experiment, the white adipose tissue was excised to determine the both mRNA expression levels of GLUT4 gene mRNA and PPARγ gene by using the real time RT-PCR. Ratios of the expression levels when that of the HFD is 1 were shown in the table 18 and FIGS. 11A and 11B.

[13] = Western blotting, Vehicle = 1.00, 5 weeks

With `CCc1ccc(CCOc2ccc(CC3SC(=O)NC3=O)cc2)nc1` (stereo not shown) [Pioglitazone, reference compound] as the compound, how does the Gained body weight (C57BL/6J-ob/ob mice [1]) read?
Its Gained body weight is 10.83 ± 0.58 g.

What about the white adipose tissue (C57BL/6J-ob/ob mice [1]) of the same compound?
The white adipose tissue was 5.70 ± 0.17 g.

And the “Blood glucose level (fasting)” value (C57BL/6J-ob/ob mice [2]; 0 week after administration)?
Its value is 183.61 ± 16.51 mg/dL.

And the “Blood glucose level (fasting)” value (C57BL/6J-ob/ob mice [2]; 2 weeks after administration)?
The value was 132.50 ± 7.86 mg/dL.

What about the “Blood glucose level (fasting)” value (C57BL/6J-ob/ob mice [2]; 5 weeks after administration) of the same compound?
Its value is 144.67 ± 8.96 mg/dL.

What about the “Blood glucose level (OGTT)” value (C57BL/6J-ob/ob mice [3]; 0 min after 2 g/kg glucose p.o.) of the same compound?
Its value is 144.67 ± 8.96 mg/dL.

What about the “Blood glucose level (OGTT)” value (C57BL/6J-ob/ob mice [3]; 30 min after 2 g/kg glucose p.o.) of the same compound?
The value was 273.55 ± 14.15 mg/dL.

And the “Blood glucose level (OGTT)” value (C57BL/6J-ob/ob mice [3]; 60 min after 2 g/kg glucose p.o.)?
The value was 170.60 ± 4.45 mg/dL.

And the “Blood glucose level (OGTT)” value (C57BL/6J-ob/ob mice [3]; 120 min after 2 g/kg glucose p.o.)?
The value was 175.79 ± 18.06 mg/dL.

And the “Gene expression level (ratio), [W]Adiponectin” value [4]?
The value was 1.58 ± 0.02.

And the “Gene expression level (ratio), [W]GLUT4” value [4]?
Its value is 1.15 ± 0.02.

What about the “Gene expression level (ratio), [W]IL-6” value [4] of the same compound?
The value was 0.19 ± 0.12.

What about the “Gene expression level (ratio), [W]LPL” value [4] of the same compound?
The value was 0.93 ± 0.04.

What about the “Gene expression level (ratio), [W]MCP-1” value [4] of the same compound?
The value was 0.44 ± 0.10.

What about the “Gene expression level (ratio), [W]PPARγ” value [4] of the same compound?
Its value is 1.13 ± 0.02.

And the “Gene expression level (ratio), [W]Perilipin” value [4]?
Its value is 1.37 ± 0.13.

And the “Gene expression level (ratio), [W]TNF-α” value [4]?
The value was 1.08 ± 0.01.

And the “Gene expression level (ratio), [W]aP2” value [4]?
Its value is 2.03 ± 0.01.

What about the “Gene expression level (ratio), [L]G6Pase” value [5] of the same compound?
The value was 0.23 ± 0.04.

And the “Gene expression level (ratio), [L]PEPCK” value [5]?
The value was 0.57 ± 0.01.

What about the “Gene expression level (ratio), Skeletal muscle (GLUT4 protein)” value (GLUT4 protein; [13]) of the same compound?
Its value is 3.15.

What about the “Gene expression level (ratio), White adipose tissue (GLUT4 protein)” value (GLUT4 protein; [13]) of the same compound?
The value was 2.24.

And the “GLUT4 protein expression amount in the skeletal muscle, times higher than vehicle administration group” value (GLUT4 protein)?
The value was roughly 3 times.

And the “GLUT4 protein expression level in the white adipose tissue, times higher than vehicle administration group” value (GLUT4 protein)?
Its value is 2.2 times.

What about the “Adiponectin level in blood, times higher than solvent administration group” value (C57BL/6J-ob/ob mice [6]) of the same compound?
The value was no less than 2.5 times.

`COc1ccc(-c2cc(=O)c3c(OC)c(OC)c(OC)c(OC)c3o2)cc1` [tangeretin] was tested. Which Body weight gain (C57BL/6 male mice [7]; tangeretin 200 mg/kg/day p.o. 5 weeks (HFD+T200)) did it give?
The Body weight gain was 3.94 ± 0.45 g.

And the Ingestion amount (C57BL/6 male mice [7]; tangeretin 200 mg/kg/day p.o., mean of 5 weeks)?
Its Ingestion amount is 2.47 ± 0.24 g/day.

And the “Tissue Weight, Kidney” value (C57BL/6 male mice [8])?
Its value is 0.31 ± 0.01 g/100 g of body weight.

And the “Tissue Weight, Liver” value (C57BL/6 male mice [8])?
The value was 1.48 ± 0.11 g/100 g of body weight.

And the “Tissue weight, Epididymis white adipose tissue” value (C57BL/6 male mice [8])?
The value was 0.99 ± 0.12 g/100 g of body weight.

And the “Tissue weight, Retroperitoneum white adipose tissue” value (C57BL/6 male mice [8])?
Its value is 2.38 ± 0.09 g/100 g of body weight.

What about the “Tissue weight, White adipose tissue in total” value (C57BL/6 male mice [8]) of the same compound?
The value was 3.38 ± 0.16 g/100 g of body weight.

What about the “Blood TG level” value (C57BL/6 male mice [9]; 0 weeks after administration) of the same compound?
The value was 108.70 ± 7.75 mg/dL.

What about the “Blood TG level” value (C57BL/6 male mice [9]; 2 weeks after administration) of the same compound?
Its value is 107.89 ± 9.46 mg/dL.

And the “Blood TG level” value (C57BL/6 male mice [9]; 5 weeks after administration)?
The value was 105.42 ± 7.54 mg/dL.

And the “Blood glucose level (fasting state)” value (C57BL/6 male mice [10]; time after administration 0 (head prints min.))?
The value was 142.82 ± 7.03 mg/dL.

What about the “Blood glucose level (fasting state)” value (C57BL/6 male mice [10]; time after administration 2 (head prints min.)) of the same compound?
The value was 164.79 ± 9.82 mg/dL.

What about the “Blood glucose level (fasting state)” value (C57BL/6 male mice [10]; time after administration 5 (head prints min.)) of the same compound?
The value was 124.75 ± 7.14 mg/dL.

What about the “Blood glucose level (OGTT)” value (C57BL/6 male mice [11]; 0 min after glucose) of the same compound?
Its value is 124.75 ± 7.14 mg/dL.

And the “Blood glucose level (OGTT)” value (C57BL/6 male mice [11]; 15 min after glucose)?
Its value is 347.43 ± 11.82 mg/dL.

What about the “Blood glucose level (OGTT)” value (C57BL/6 male mice [11]; 30 min after glucose) of the same compound?
The value was 309.73 ± 17.88 mg/dL.

What about the “Blood glucose level (OGTT)” value (C57BL/6 male mice [11]; 60 min after glucose) of the same compound?
Its value is 274.14 ± 19.04 mg/dL.

And the “Blood glucose level (OGTT)” value (C57BL/6 male mice [11]; 120 min after glucose)?
The value was 265.19 ± 15.82 mg/dL.

What about the “Expression level (ratio), [M]GLUT4” value ([12]; skeletal muscle mRNA) of the same compound?
The value was 1.72.

And the “Expression level (ratio), [W]GLUT4” value ([12]; white adipose tissue mRNA)?
Its value is 0.42.

What about the “Expression level (ratio), [W]PPARγ” value ([12]; white adipose tissue mRNA) of the same compound?
The value was 0.43.
